Data: PubChem BioAssay AID328 (DTP/NCI, 2004)
Values joined by “and” are separate entries in the source; they are usually repeats but may differ in a detail not shown here. Equal entries are not always repeated. Inconclusive results and toxic doses are left out.

Tested on: BDF1 mice, P388 leukemia ip, median survival T/C
Assay: NCI In Vivo Anticancer Drug Screen. Data for tumor model P388 Leukemia (intraperitoneal) in B6D2F1 (BDF1) mice
Conditions: endpoint: median survival time, higher = longer survival
In short: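 Mice carrying the transplantable tumour receive compound or vehicle. Survival is followed in each arm, and the treated measure is divided by the vehicle measure.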

[1] = dose: 6.25 mg/kg/injection, schedule: Q01DX009 (ip), vehicle: Klucel (hydroxypropylcellulose) (HPC)
[2] = dose: 12.5 mg/kg/injection, schedule: Q01DX009 (ip), vehicle: Klucel (hydroxypropylcellulose) (HPC)
[3] = dose: 100.0 mg/kg/injection, schedule: Q01DX009 (ip), vehicle: saline with Tween-80
[4] = dose: 400.0 mg/kg/injection, schedule: Q01DX009 (ip), vehicle: saline with Tween-80
[5] = dose: 25.0 mg/kg/injection, schedule: Q01DX009 (ip), vehicle: saline
[6] = dose: 25.0 mg/kg/injection, schedule: Q04DX003 (ip), vehicle: saline
[7] = dose: 50.0 mg/kg/injection, schedule: Q01DX009 (ip), vehicle: saline
[8] = dose: 50.0 mg/kg/injection, schedule: Q04DX003 (ip), vehicle: saline
[9] = dose: 100.0 mg/kg/injection, schedule: Q01DX009 (ip), vehicle: saline
[10] = dose: 100.0 mg/kg/injection, schedule: Q04DX003 (ip), vehicle: saline
[11] = dose: 100.0 mg/kg/injection, schedule: Q01DX001 (ip), vehicle: saline with Tween-80
[12] = dose: 400.0 mg/kg/injection, schedule: Q01DX001 (ip), vehicle: saline with Tween-80
[13] = dose: 200.0 mg/kg/injection, schedule: Q01DX009 (ip), vehicle: saline with Tween-80
[14] = dose: 50.0 mg/kg/injection, schedule: Q01DX009 (ip), vehicle: saline with Tween-80

COc1ccc(C2c3cc4c(c(OC)c3CC(CO)C2C(=O)O)OCO4)cc1OC (stereo not given)
T/C (dose: 9.38 mg/kg/injection, schedule: Q01DX010 (ip), vehicle: water): 95 % of control
T/C (dose: 18.75 mg/kg/injection, schedule: Q01DX010 (ip), vehicle: water): 90 % of control
T/C (dose: 37.5 mg/kg/injection, schedule: Q01DX010 (ip), vehicle: water): 90 % of control
T/C (dose: 50.0 mg/kg/injection, schedule: Q01DX001 (ip), vehicle: water): 110 % of control
T/C (dose: 75.0 mg/kg/injection, schedule: Q01DX010 (ip), vehicle: water): 110 % of control
T/C (dose: 100.0 mg/kg/injection, schedule: Q01DX001 (ip), vehicle: water): 100 % of control
T/C (dose: 150.0 mg/kg/injection, schedule: Q01DX010 (ip), vehicle: water): 115 % of control
T/C (dose: 200.0 mg/kg/injection, schedule: Q01DX001 (ip), vehicle: water): 110 % of control
T/C (dose: 400.0 mg/kg/injection, schedule: Q01DX001 (ip), vehicle: water): 110 % of control

O=NN(CCCl)C(=O)Nc1ccc(Cl)cc1
T/C (dose: 8.2 mg/kg/injection, schedule: Q04DX003 (ip), vehicle: saline with Tween-80): 195 % of control
T/C (dose: 12.5 mg/kg/injection, schedule: Q04DX003 (ip), vehicle: saline with Tween-80): 195 % of control
T/C (dose: 18.75 mg/kg/injection, schedule: Q04DX003 (ip), vehicle: saline with Tween-80): 200 % of control

Nc1ccc(S(=O)(=O)c2cc(O)c3ccccc3c2O)cc1
T/C [1]: 118 % of control
T/C [2]: 104 % of control
T/C (dose: 25.0 mg/kg/injection, schedule: Q01DX009 (ip), vehicle: Klucel (hydroxypropylcellulose) (HPC)): 122 % of control

COC(=S)SCN(CSC(=S)OC)c1ccccc1Cl
T/C [3]: 118 % of control
T/C [4]: 159 % of control
T/C (dose: 600.0 mg/kg/injection, schedule: Q01DX009 (ip), vehicle: saline with Tween-80): 158 % of control

COc1cc2ccncc2cc1OCc1ccccc1
T/C (dose: 6.25 mg/kg/injection, schedule: Q04DX003 (ip), vehicle: saline): 100 % of control
T/C (dose: 12.5 mg/kg/injection, schedule: Q04DX003 (ip), vehicle: saline): 100 % of control and 118 % of control
T/C [5]: 86 % of control
T/C [6]: 93 % of control and 103 % of control
T/C [7]: 92 % of control
T/C [8]: 98 % of control and 118 % of control
T/C [9]: 104 % of control
T/C [10]: 97 % of control and 100 % of control
T/C (dose: 200.0 mg/kg/injection, schedule: Q04DX003 (ip), vehicle: saline): 93 % of control and 120 % of control
T/C (dose: 400.0 mg/kg/injection, schedule: Q04DX003 (ip), vehicle: saline): 106 % of control

CC(C)c1ccc(O)c(=O)cc1
T/C (dose: 40.0 mg/kg/injection, schedule: Q01DX010 (ip), vehicle: carboxymethylcellulose (CMC)): 95 % of control
T/C (dose: 80.0 mg/kg/injection, schedule: Q01DX010 (ip), vehicle: carboxymethylcellulose (CMC)): 100 % of control
T/C (dose: 160.0 mg/kg/injection, schedule: Q01DX010 (ip), vehicle: carboxymethylcellulose (CMC)): 100 % of control

CCCCc1c2c(nn1C(C)=O)C(=O)C=C(Nc1ccccc1)C2=O
T/C (dose: 100.0 mg/kg/injection, schedule: Q04DX003 (ip), vehicle: saline with Tween-80): 100 % of control
T/C (dose: 200.0 mg/kg/injection, schedule: Q04DX003 (ip), vehicle: saline with Tween-80): 99 % of control

COc1ccc(NC(=O)Nc2ccccc2F)cc1
T/C [11]: 95 % of control
T/C (dose: 200.0 mg/kg/injection, schedule: Q01DX001 (ip), vehicle: saline with Tween-80): 95 % of control
T/C [12]: 95 % of control

S=C1NCCS1
T/C (dose: 22.5 mg/kg/injection, schedule: Q01DX009 (ip), vehicle: saline with Tween-80): 97 % of control
T/C (dose: 45.0 mg/kg/injection, schedule: Q01DX009 (ip), vehicle: saline with Tween-80): 97 % of control
T/C (dose: 90.0 mg/kg/injection, schedule: Q01DX009 (ip), vehicle: saline with Tween-80): 92 % of control

O=C(Nc1ccc(C2=NCCN2)cc1)c1cccc(C(=O)Nc2ccc(C3=NCCN3)cc2)c1
T/C (dose: 8.0 mg/kg/injection, schedule: Q01DX010 (ip), vehicle: saline): 160 % of control
T/C (dose: 16.0 mg/kg/injection, schedule: Q01DX010 (ip), vehicle: saline): 163 % of control and 180 % of control
T/C (dose: 32.0 mg/kg/injection, schedule: Q01DX010 (ip), vehicle: saline): 195 % of control and 200 % of control
T/C (dose: 64.0 mg/kg/injection, schedule: Q01DX010 (ip), vehicle: saline): 235 % of control and 200 % of control

O=C1C=Cc2cccc3cccc1c23
T/C (dose: 50.0 mg/kg/injection, schedule: Q04DX003 (ip), vehicle: saline sonified): 95 % of control
T/C (dose: 100.0 mg/kg/injection, schedule: Q04DX003 (ip), vehicle: saline sonified): 95 % of control
T/C (dose: 200.0 mg/kg/injection, schedule: Q04DX003 (ip), vehicle: saline sonified): 91 % of control

COc1ccc(NC(=S)N(C)C)cc1
T/C [3]: 100 % of control
T/C [13]: 109 % of control
T/C [4]: 109 % of control

CC(/C=N/NC(=[N-])N)=N\N=C(/[NH-])N.[Ni+2]
T/C [1]: 97 % of control
T/C [2]: 97 % of control

CN=C1N[N+]2=CCCCC2S1 (stereo not given)
T/C (dose: 60.0 mg/kg/injection, schedule: Q01DX009 (ip), vehicle: saline): 163 % of control
T/C (dose: 120.0 mg/kg/injection, schedule: Q01DX009 (ip), vehicle: saline): 95 % of control

O=C(/C=C/c1ccc(OCc2ccccc2)cc1)c1cccc(Br)c1
T/C [14]: 89 % of control
T/C [3]: 100 % of control
T/C [13]: 91 % of control

Cc1c[nH]c2nccnc12
T/C (dose: 1.56 mg/kg/injection, schedule: Q01DX009 (ip), vehicle: water): 103 % of control
T/C (dose: 3.12 mg/kg/injection, schedule: Q01DX009 (ip), vehicle: water): 94 % of control and 105 % of control
T/C (dose: 6.25 mg/kg/injection, schedule: Q01DX009 (ip), vehicle: water): 93 % of control and 94 % of control and 101 % of control
T/C (dose: 12.5 mg/kg/injection, schedule: Q01DX009 (ip), vehicle: water): 91 % of control and 106 % of control
T/C (dose: 50.0 mg/kg/injection, schedule: Q01DX009 (ip), vehicle: water): 90 % of control and 99 % of control
T/C (dose: 50.0 mg/kg/injection, schedule: Q04DX003 (ip), vehicle: water): 94 % of control
T/C (dose: 100.0 mg/kg/injection, schedule: Q01DX009 (ip), vehicle: water): 89 % of control and 106 % of control
T/C (dose: 100.0 mg/kg/injection, schedule: Q04DX003 (ip), vehicle: water): 94 % of control
T/C (dose: 200.0 mg/kg/injection, schedule: Q01DX009 (ip), vehicle: water): 108 % of control
T/C (dose: 200.0 mg/kg/injection, schedule: Q04DX003 (ip), vehicle: water): 103 % of control
T/C (dose: 400.0 mg/kg/injection, schedule: Q01DX009 (ip), vehicle: water): 99 % of control
T/C (dose: 400.0 mg/kg/injection, schedule: Q04DX003 (ip), vehicle: water): 92 % of control

Cc1cc2nc3ccc(=[N+](C)C)cc-3sc2cc1N
T/C [5]: 90 % of control and 113 % of control
T/C [6]: 109 % of control and 96 % of control
T/C [7]: 100 % of control and 113 % of control
T/C [8]: 114 % of control
T/C [10]: 121 % of control

COC(=O)C/C(=C/C=C1/C(=O)ON=C1C)c1c(C)[nH]oc1=O
T/C [9]: 90 % of control
T/C (dose: 200.0 mg/kg/injection, schedule: Q01DX009 (ip), vehicle: saline): 100 % of control
T/C (dose: 400.0 mg/kg/injection, schedule: Q01DX009 (ip), vehicle: saline): 95 % of control

NCCC(O)C(=O)NC1CC(N)C(OC2OC(CO)C(O)C(O)C2N)C(OC2OC(CO)C(O)C2O)C1O (stereo not given)
T/C (dose: 12.5 mg/kg/injection, schedule: Q01DX009 (ip), vehicle: saline): 109 % of control
T/C [5]: 109 % of control
T/C [7]: 100 % of control

Cc1ccc(NC(=O)Oc2ccc(Cl)c(C)c2)c([N+](=O)[O-])c1
T/C (dose: 12.5 mg/kg/injection, schedule: Q01DX009 (ip), vehicle: saline with Tween-80): 108 % of control
T/C (dose: 25.0 mg/kg/injection, schedule: Q01DX009 (ip), vehicle: saline with Tween-80): 102 % of control
T/C [14]: 117 % of control

COB(C1CCCCC1)C1CCCCC1
T/C (dose: 75.0 mg/kg/injection, schedule: Q01DX001 (ip), vehicle: saline): 113 % of control
T/C (dose: 150.0 mg/kg/injection, schedule: Q01DX001 (ip), vehicle: saline): 104 % of control
T/C (dose: 300.0 mg/kg/injection, schedule: Q01DX001 (ip), vehicle: saline): 95 % of control

N#Cc1ccccc1CC(O)(c1ccccc1)c1ccccn1 (stereo not given)
T/C [14]: 100 % of control
T/C [3]: 103 % of control
T/C [13]: 115 % of control

COc1cc(Nc2ncnc(N)c2[N+](=O)[O-])cc(OC)c1OC
T/C [11]: 87 % of control
T/C [12]: 87 % of control
